Common to all, as to type: functional, cell-based
Assay [1] concerns MCF7. The experiment in a line: Cytotoxicity against human MCF7 cells by MTT assay. (In general: Tetrazolium assays rely on reduction of a dye to a coloured formazan, in cell work by metabolically active cells.)
Assay [2] deals with A549. The assay is described as follows: Cytotoxicity against human A549 cells by MTT assay.
Assay [3] relates to MDA-MB-231. The experiment in a line: Cytotoxicity against human MDA-MB-231 cells by MTT assay.
In assay [4] the test system is HeLa. The experiment in a line: Cytotoxicity against human HeLa cells by MTT assay.

Each structure is given as a SMILES string. Bounds are passed on as bounds.

Consider `Cc1coc2c3c(ccc2c1=O)OC[C@H]1[C@@H]3N(Cc2ccccc2)OC1(C)C`, for which the IC50 in assay [1] is above 100 µM; in assay [2], above 100 µM; in assay [3] it was above 100 µM; in assay [4], 6.61 µM.
As for `Cc1oc2c3c(ccc2c(=O)c1C)OC[C@H]1[C@@H]3N(C2CCCCC2)OC1(C)C`, the IC50 in assay [1] was above 100 µM; in assay [2] it was 8.96 µM; in assay [3], 7.56 µM; in assay [4] it was above 100 µM.
For `COc1ccc(CN2OC(C)(C)[C@H]3COc4ccc5c(=O)c(C)c(C)oc5c4[C@H]32)cc1`, the IC50 in assay [1] is 5.59 µM; in assay [2] it was 11.2 µM; in assay [3] it was 7.81 µM; in assay [4], above 100 µM.
On to `COc1cccc2c1C(=O)c1c(O)c3c(c(O)c1C2=O)C[C@@](O)(C(=O)CO)C[C@@H]3O[C@H]1C[C@H](N)[C@H](O)[C@H](C)O1` [DOXORUBICIN], for which the IC50 in assay [1] was found to be 1.05 µM; in assay [2], 1.21 µM; in assay [3] it was 0.501 µM; in assay [4], 0.451 µM.
For `COc1ccc(CN2OC(C)(C)[C@H]3COc4ccc5c(=O)c(C)coc5c4[C@H]32)cc1` the same measures were 7.38 µM, 29.4 µM, above 100 µM and 6.54 µM.
Turning to `COc1ccc(CN2OC(C)(C)[C@H]3COc4ccc5c(=O)c(-c6ccccc6)c(C)oc5c4[C@H]32)cc1`, the IC50 in assay [1], in assay [2], in assay [3] and in assay [4] was above 100 µM in each case.
For `Cc1oc2c3c(ccc2c(=O)c1C)OC[C@H]1[C@@H]3N(Cc2ccc(C(C)C)cc2)OC1(C)C`, the IC50 in assay [1] is 7.96 µM; in assay [2], above 100 µM; in assay [3], 6.25 µM; in assay [4] it was above 100 µM.
As to `Cc1ccc(CN2OC(C)(C)[C@H]3COc4ccc5c(=O)c(C)c(C)oc5c4[C@H]32)cc1`, the IC50 was determined as 26.5 µM in assay [1], 8.92 µM in assay [2], 5.64 µM in assay [3] and 18.2 µM in assay [4].
For `Cc1oc2c3c(ccc2c(=O)c1C)OC[C@H]1[C@@H]3N(Cc2ccc(F)cc2)OC1(C)C` the same measures were 10.1 µM, 12.8 µM, 7.9 µM and 9.54 µM.
Turning to `Cc1oc2c3c(ccc2c(=O)c1C)OC[C@H]1[C@@H]3N(Cc2ccccc2)OC1(C)C`, the concentration for half-maximal inhibition (IC50) in assay [1] was 5.78 µM; in assay [2], 17.9 µM; in assay [3], 14.5 µM; in assay [4], above 100 µM.
For `Cc1coc2c3c(ccc2c1=O)OC[C@H]1[C@@H]3N(C2CCCCC2)OC1(C)C` the same measures were 22.7 µM, 0.194 µM, 17.4 µM and 17.5 µM.
For `Cc1ccc(CN2OC(C)(C)[C@H]3COc4ccc5c(=O)c(C)coc5c4[C@H]32)cc1` the same measures were 5.3 µM, above 100 µM, above 100 µM and above 100 µM.

What is called IC50 is the concentration that gives 50% inhibition. The low end stands for higher potency, the high end for lower potency.

The values above are taken from ChEMBL document CHEMBL2401725, “Synthesis of new chromeno-annulated cis-fused pyrano[4,3-c]isoxazole derivatives via intramolecular nitrone cycloaddition and their cytotoxicity evaluation” (Bioorg Med Chem Lett, 2013).
